Results: ChEMBL document CHEMBL1156206, “Pyrazolone-fused combretastatins and their precursors: synthesis, cytotoxicity, antitubulin activity and molecular modeling studies” (Bioorg Med Chem, 2010)
Each block holds one compound with its values, some of them ahead of it. Activity calls are given as the source filed them. No cut-off for these calls is given here.

Assays:
[1] = Inhibition of tubulin polymerization at 20 uM relative to control
HeLa [2] = assay: Cytotoxicity against human HeLa cells after 72 hrs by MTT assay; type: functional, cell-based
T-24 = assay: Cytotoxicity against human T24 cells after 72 hrs by MTT assay; type: functional, cell-based; details: T-24, 72 h
HEp-2 [3] = assay: Cytotoxicity against human cisplatin-resistant Hep2 cells after 72 hrs by MTT assay; type: functional, cell-based; details: HEp-2, 72 h
HEp-2 [4] = assay: Cytotoxicity against human Hep2 cells after 72 hrs by MTT assay; type: functional, cell-based; details: HEp-2, 72 h
[5] = Inhibition of tubulin polymerization
SW-620 = assay: Cytotoxicity against human SW620 cells after 72 hrs by MTT assay; type: functional, cell-based; details: SW-620, 72 h
RT-112 = assay: Cytotoxicity against human RT112 cells after 72 hrs by MTT assay; type: functional, cell-based; details: RT-112, 72 h
MIA PaCa-2 = assay: Cytotoxicity against human MIAPaCa2 cells after 72 hrs by MTT assay; type: functional, cell-based; details: MIA PaCa-2, 72 h
HeLa [6] = assay: Cell cycle arrest in human HeLa cells assessed as accumulation of cells in G2/M phase at 2.2 uM after 24 hrs using propidium iodide by flow cytometry; type: functional
HeLa [7] = assay: Induction of microtubule network disruption in human HeLa cells at 0.02 uM after 24 hrs by immunofluorescence assay; type: functional, cell-based
HeLa [8] = assay: Cell cycle arrest in human HeLa cells assessed as accumulation of cells in S phase at 2.2 uM after 24 hrs using propidium iodide by flow cytometry; type: functional
HeLa [9] = assay: Cell cycle arrest in human HeLa cells assessed as accumulation of cells in G0/1 phase at 2.2 uM after 24 hrs using propidium iodide by flow cytometry; type: functional
HeLa [10] = assay: Induction of microtubule network disruption in human HeLa cells at 0.2 uM after 24 hrs by immunofluorescence assay; type: functional, cell-based
HeLa [11] = assay: Cell cycle arrest in human HeLa cells assessed as accumulation of cells in G2/M phase at 0.2 uM after 24 hrs using propidium iodide by flow cytometry; type: functional
HeLa [12] = assay: Cell cycle arrest in human HeLa cells assessed as accumulation of cells in S phase at 0.2 uM after 24 hrs using propidium iodide by flow cytometry; type: functional
HeLa [13] = assay: Cell cycle arrest in human HeLa cells assessed as accumulation of cells in G0/1 phase at 0.2 uM after 24 hrs using propidium iodide by flow cytometry; type: functional
HeLa [14] = assay: Induction of microtubule network disruption in human HeLa cells at 2.2 uM after 24 hrs by immunofluorescence assay; type: functional, cell-based
HeLa [15] = assay: Cell cycle arrest in human HeLa cells assessed as accumulation of cells in S phase at 0.02 uM after 24 hrs using propidium iodide by flow cytometry; type: functional
HeLa [16] = assay: Cell cycle arrest in human HeLa cells assessed as accumulation of cells in G2/M phase at 0.02 uM after 24 hrs using propidium iodide by flow cytometry; type: functional
HeLa [17] = assay: Cell cycle arrest in human HeLa cells assessed as accumulation of cells in G0/1 phase at 0.02 uM after 24 hrs using propidium iodide by flow cytometry; type: functional
HeLa [18] = assay: Induction of apoptosis in human HeLa cells assessed as cells containing hypodiploid DNA at 0.2 uM after 24 hrs by flow cytometry; type: functional
HeLa [19] = assay: Induction of apoptosis in human HeLa cells assessed as cells containing hypodiploid DNA at 0.02 uM after 24 hrs by flow cytometry; type: functional
HeLa [20] = assay: Induction of apoptosis in human HeLa cells assessed as cells containing hypodiploid DNA at 2.2 uM after 24 hrs by flow cytometry; type: functional
[21] = Homo sapiens, HeLa, 72 h, read-out: IC50

SMILES: COc1ccc(-c2[nH][nH]c(=O)c2-c2cc(OC)c(OC)c(OC)c2)cc1O
inhibition [1]: 99%
IC50 (T-24): 619 nM
IC50 (HeLa [2]; [21]): 176 nM
IC50 (HEp-2 [3]): 709 nM
IC50 (HEp-2 [4]): 1140 nM
IC50 [5]: 1700 nM
IC50 (SW-620): 543 nM
IC50 (RT-112): 2080 nM
IC50 (MIA PaCa-2): 462 nM

SMILES: COC(=O)n1[nH]c(=O)c(-c2cc(OC)c(OC)c(OC)c2)c1-c1ccc2ccccc2c1
inhibition [1]: 3%
IC50 (HeLa [2]; [21]): 523 nM

SMILES: COc1ccc(-c2[nH][nH]c(=O)c2-c2cc(OC)c(OC)c(OC)c2)cc1
inhibition [1]: 100%
IC50 (T-24): 1160 nM
IC50 (HeLa [2]; [21]): 152 nM
IC50 (HEp-2 [3]): 615 nM
IC50 (HEp-2 [4]): 529 nM
IC50 [5]: 2600 nM
IC50 (SW-620): 455 nM
IC50 (RT-112): 1890 nM
IC50 (MIA PaCa-2): 575 nM

SMILES: COC(=O)n1[nH]c(=O)c(-c2cc(OC)c(OC)c(OC)c2)c1-c1ccc(OC)c(OC)c1
inhibition [1]: 3%
IC50 (HeLa [2]; [21]): 36300 nM

SMILES: COc1ccc(/C=C\c2cc(OC)c(OC)c(OC)c2)cc1O [COMBRETASTATIN A4]
inhibition [1]: 89%
IC50 (T-24): 8.7 nM
IC50 (HeLa [2]; [21]): 2 nM
IC50 (HEp-2 [3]): 5.2 nM
IC50 (HEp-2 [4]): 5.5 nM
IC50 [5]: 1700 nM
IC50 (SW-620): 23 nM
Activity (HeLa [6]): 91.1%
Activity (HeLa [7]): Active
IC50 (RT-112): 21.6 nM
IC50 (MIA PaCa-2): 7.2 nM

SMILES: COC(=O)n1[nH]c(=O)c(-c2ccc(OC)c(OC)c2)c1-c1cc(OC)c(OC)cc1OC
inhibition [1]: 2%
IC50 (HeLa [2]; hela): Not Active

SMILES: COc1ccc(-c2c(-c3cc(OC)c(OC)cc3OC)[nH][nH]c2=O)cc1OC
inhibition [1]: 0%
IC50 (HeLa [2]; [21]): > 50000 nM

SMILES: COC(=O)n1[nH]c(=O)c(-c2ccc(OC)c(OC)c2)c1-c1cc(OC)c(OC)c(OC)c1
inhibition [1]: 0%
IC50 (HeLa [2]; hela): Not Active

SMILES: COc1ccc(-c2c(-c3cc(OC)c(OC)c(OC)c3)[nH][nH]c2=O)cc1OC
inhibition [1]: 4%
IC50 (HeLa [2]; [21]): > 50000 nM

SMILES: COc1cc(-c2c(-c3cccc4ccccc34)[nH][nH]c2=O)cc(OC)c1OC
inhibition [1]: 0%
IC50 (HeLa [2]; [21]): > 50000 nM

SMILES: COC(=O)n1[nH]c(=O)c(-c2cc(OC)c(OC)c(OC)c2)c1-c1ccc(OC)cc1
inhibition [1]: 0%
IC50 (HeLa [2]; [21]): 959 nM

SMILES: COc1ccc(-c2[nH][nH]c(=O)c2-c2cc(OC)c(OC)c(OC)c2)cc1F
inhibition [1]: 100%
IC50 (T-24): 1150 nM
IC50 (HeLa [2]; [21]): 158 nM
IC50 (HEp-2 [3]): 684 nM
IC50 (HEp-2 [4]): 1180 nM
IC50 (SW-620): 487 nM
IC50 (RT-112): 3320 nM
IC50 (MIA PaCa-2): 556 nM

SMILES: COc1ccc(-c2[nH][nH]c(=O)c2-c2cc(OC)c(OC)c(OC)c2)cc1OC
inhibition [1]: 31%
IC50 (HeLa [2]; [21]): 5270 nM

SMILES: COc1cc(-c2c(-c3ccc4ccccc4c3)[nH][nH]c2=O)cc(OC)c1OC
inhibition [1]: 98%
IC50 (HeLa [2]; [21]): 114 nM
IC50 [5]: 1900 nM

SMILES: COC(=O)n1[nH]c(=O)c(-c2cc(OC)c(OC)c(OC)c2)c1-c1cccc2ccccc12
inhibition [1]: 7%
IC50 (HeLa [2]; [21]): > 50000 nM

The next lines start with results.

inhibition [1]: 10%
SMILES: COC(=O)NNC(=O)/C(=C/c1cccc(F)c1)c1cc(OC)c(OC)c(OC)c1
IC50 (HeLa [2]; [21]): > 50000 nM

inhibition [1]: 0%
SMILES: COC(=O)NNC(=O)/C(=C/c1ccc(OC)c(OC)c1)c1cc(OC)c(OC)c(OC)c1
IC50 (HeLa [2]; [21]): > 50000 nM

inhibition [1]: 0%
SMILES: COC(=O)NNC(=O)/C(=C/c1cc(OC)c(OC)cc1OC)c1ccc(OC)c(OC)c1
IC50 (HeLa [2]; hela): Not Active

inhibition [1]: 26%
SMILES: COC(=O)NNC(=O)/C(=C/c1ccc(OC)cc1)c1cc(OC)c(OC)c(OC)c1
IC50 (HeLa [2]; [21]): 1310 nM

inhibition [1]: 0%
SMILES: COC(=O)NNC(=O)/C(=C/c1cc(OC)c(OC)c(OC)c1)c1ccc(OC)c(OC)c1
IC50 (HeLa [2]; [21]): > 50000 nM

inhibition [1]: 66%
SMILES: COC(=O)NNC(=O)/C(=C/c1ccc(OC)c(F)c1)c1cc(OC)c(OC)c(OC)c1
IC50 (HeLa [2]; [21]): 667 nM

inhibition [1]: 97%
IC50 [5]: 2700 nM
SMILES: COC(=O)NNC(=O)/C(=C/c1ccc2ccccc2c1)c1cc(OC)c(OC)c(OC)c1
Activity (HeLa [8]): 7.9%
Activity (HeLa [9]): 1.2%
Activity (HeLa [10]): Active
Activity (HeLa [11]): 86.6%
IC50 (T-24): 185 nM
IC50 (HeLa [2]; [21]): 48 nM
IC50 (HEp-2 [3]): 51 nM
Activity (HeLa [12]): 10.8%
Activity (HeLa [13]): 2.7%
Activity (HeLa [14]): Active
IC50 (HEp-2 [4]): 54 nM
Activity (HeLa [15]): 28.3%
IC50 (SW-620): 74.3 nM
Activity (HeLa [6]): 90.5%
Activity (HeLa [16]): 11.5%
Activity (HeLa [17]): 60.2%
Activity (HeLa [7]): inactive
Activity (HeLa [18]): 21.1%
Activity (HeLa [19]): 6.9%
IC50 (RT-112): 196 nM
Activity (HeLa [20]): 21.4%
IC50 (MIA PaCa-2): 127 nM

inhibition [1]: 55%
SMILES: COC(=O)NNC(=O)/C(=C/c1cccc2ccccc12)c1cc(OC)c(OC)c(OC)c1
IC50 (HeLa [2]; [21]): 1300 nM

inhibition [1]: 1%
SMILES: COC(=O)n1[nH]c(=O)c(-c2cc(OC)c(OC)c(OC)c2)c1-c1cccc(F)c1
IC50 (HeLa [2]; hela): Not Active

inhibition [1]: 9%
SMILES: COC(=O)n1[nH]c(=O)c(-c2cc(OC)c(OC)c(OC)c2)c1-c1ccc(OC)c(F)c1
IC50 (HeLa [2]; [21]): 1720 nM

inhibition [1]: 25%
SMILES: COC(=O)NNC(=O)/C(=C/c1ccc(OC)c(OC(C)=O)c1)c1cc(OC)c(OC)c(OC)c1
IC50 (HeLa [2]; [21]): 498 nM

inhibition [1]: 0%
SMILES: COC(=O)n1[nH]c(=O)c(-c2cc(OC)c(OC)c(OC)c2)c1-c1ccc(OC)c(OC(C)=O)c1
IC50 (HeLa [2]; [21]): 337 nM

inhibition [1]: 0%
SMILES: COc1cc(-c2c(-c3cccc(F)c3)[nH][nH]c2=O)cc(OC)c1OC
IC50 (HeLa [2]; [21]): > 50000 nM
